Source: the supplement of paper PMC10307832

Key:
Assay in all cases: relative viability (nuclei count vs DMSO), 5 days (fraction); higher = more cells survive
[1] = compound: O=C(C[C@H]1NCCC[C@@H]1O)Cn1cnc2cc(Br)c(Cl)cc2c1=O (racemic) [Halofuginone] + Nc1ncn([C@H]2C[C@H](O)[C@@H](CO)O2)c(=O)n1 [Decitabine] (partner 2 µM)
In short: (§1)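 Relative viability divides the nuclei count in treated wells by that in vehicle wells. Lung cancer cell lines were seeded in 1536-well plates, dosed by pin tool the next day, and fixed and stained after 5 days in one step with final 0.05% Triton X-100, 1% formaldehyde and 1 ug/ml Hoechst. Dosing was a single drug or a fixed anchor-drug dose plus five library-drug doses (not always all listed) in √10 steps, and values are medians of duplicate plates imaged at 4×.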

[2] = compound: O=C(C[C@H]1NCCC[C@@H]1O)Cn1cnc2cc(Br)c(Cl)cc2c1=O (racemic) [Halofuginone] + CC1(C)CCC(c2ccc(Cl)cc2)=C(CN2CCN(c3ccc(C(=O)NS(=O)(=O)c4ccc(N[C@H](CCN5CCOCC5)CSc5ccccc5)c(S(=O)(=O)C(F)(F)F)c4)cc3)CC2)C1 [Navitoclax] (partner 0.5 µM)
In short: as §1

Cediranib + Crizotinib = compound: COc1cc2c(Oc3ccc4[nH]c(C)cc4c3F)ncnc2cc1OCCCN1CCCC1 [Cediranib] + C[C@@H](Oc1cc(-c2cnn(C3CCNCC3)c2)cnc1N)c1c(Cl)ccc(F)c1Cl [Crizotinib] (partner 1 µM)
In short: as §1

[3] = compound: O=C(C[C@H]1NCCC[C@@H]1O)Cn1cnc2cc(Br)c(Cl)cc2c1=O (racemic) [Halofuginone] + CC(C)C[C@H](NC(=O)[C@H](Cc1ccccc1)NC(=O)c1cnccn1)B(O)O [Bortezomib] (partner 0.002 µM)
In short: as §1

Cell Line | relative viability ([1]; first compound 0.001 µM) | relative viability ([1]; first compound 0.003162 µM) | relative viability ([1]; first compound 0.01 µM) | relative viability ([1]; first compound 0.03162 µM) | relative viability ([1]; first compound 0.1 µM) | relative viability ([2]; first compound 0.001 µM) | relative viability ([2]; first compound 0.003162 µM) | relative viability ([2]; first compound 0.01 µM) | relative viability ([2]; first compound 0.03162 µM) | relative viability ([2]; first compound 0.1 µM) | relative viability (Cediranib + Crizotinib; first compound 0.04 µM) | relative viability (Cediranib + Crizotinib; first compound 0.1265 µM) | relative viability (Cediranib + Crizotinib; first compound 0.4 µM) | relative viability (Cediranib + Crizotinib; first compound 1.265 µM) | relative viability (Cediranib + Crizotinib; first compound 4 µM) | relative viability ([3]; first compound 0.001 µM) | relative viability ([3]; first compound 0.003162 µM) | relative viability ([3]; first compound 0.01 µM) | relative viability ([3]; first compound 0.03162 µM) | relative viability ([3]; first compound 0.1 µM)
RERF-LC-KJ | 0.842 | 0.807 | 0.664 | 0.753 | 0.563 | 0.987 | 1.11 | 1.05 | 0.905 | 0.699 | 0.875 | 0.893 | 0.799 | 0.782 | 0.752 | 1.23 | 1.12 | 1.15 | 1.17 | 1.04
NCI-H1755 | 0.693 | 0.699 | 0.726 | 0.746 | 0.748 | 0.958 | 1.01 | 0.995 | 1.01 | 0.596 | 0.888 | 0.845 | 0.838 | 0.855 | 0.848 | 0.968 | 0.913 | 0.94 | 0.99 | 0.816
PC-14 | 0.231 | 0.273 | 0.237 | 0.259 | 0.0807 | 1.07 | 0.941 | 0.963 | 0.572 | 0.154 | 0.895 | 0.909 | 0.82 | 0.918 | 0.855 | 0.865 | 0.819 | 0.697 | 0.13 | 0.0654
NCI-H322M | 0.71 | 0.657 | 0.681 | 0.657 | 0.53 | 1.2 | 1.26 | 1.26 | 1.24 | 1.19 | 0.894 | 1.05 | 0.887 | 0.904 | 0.945 | 1.16 | 1.13 | 1.28 | 1.16 | 0.997
NCI-H1666 | 0.769 | 0.601 | 0.724 | 0.795 | 0.794 | 1.1 | 0.885 | 0.962 | 1.01 | 0.419 | 1.02 | 1.02 | 0.896 | 1.01 | 0.874 | 0.856 | 0.902 | 0.791 | 0.85 | 0.618
A-427 | 0.626 | 0.596 | 0.541 | 0.564 | 0.52 | 1.08 | 0.984 | 0.903 | 0.898 | 0.946 | 0.946 |  | 0.829 | 0.866 | 0.884 | 1 | 0.869 | 1 | 0.954 | 0.932
NCI-H1651 | 0.592 | 0.563 | 0.601 | 0.591 | 0.58 | 1.04 | 1.15 | 1.12 | 0.761 | 0.267 | 0.887 | 0.904 | 0.876 | 0.89 | 0.976 | 0.93 | 0.972 | 0.915 | 0.898 | 0.903
NCI-H520 | 0.529 | 0.498 | 0.579 | 0.607 | 0.347 | 1.18 | 1.05 | 1.03 | 0.835 | 0.346 | 0.93 |  | 0.665 | 0.801 | 0.598 | 0.723 | 0.721 | 0.494 | 0.579 | 0.314
201T | 0.844 | 0.896 | 0.857 | 0.792 | 0.845 | 1.22 | 1.15 | 1.24 | 1.13 | 1.28 | 1.05 | 1.18 | 0.989 | 1.01 | 1.01 | 1.06 | 1.1 | 1.15 | 1.1 | 1.16
NCI-H460 | 0.47 | 0.509 | 0.518 | 0.501 | 0.0841 | 1.2 | 1.3 | 1.12 | 0.232 | 0.0111 | 0.867 | 0.906 | 0.815 | 0.889 | 0.935 | 1.07 | 1.09 | 0.922 | 0.66 | 0.0555
NCI-H596 | 1.01 | 0.961 | 1.09 | 1.01 | 0.775 | 0.911 | 0.912 | 0.997 | 1 | 0.606 | 0.934 | 1.09 | 0.988 | 0.954 | 1.09 | 1 | 1.01 | 0.934 | 1.01 | 0.698
HARA | 0.664 | 0.648 | 0.611 | 0.591 | 0.434 | 1.14 | 1.11 | 1.14 | 1.12 | 1.14 | 1.07 | 1.15 | 0.991 | 1.02 | 1.03 | 1.12 | 1.03 | 1.09 | 1.15 | 1.14
NCI-H2126 | 0.586 | 0.612 | 0.58 | 0.52 | 0.588 | 0.87 | 0.822 | 0.824 | 0.824 | 0.831 | 1.04 | 1.07 | 0.986 | 0.994 | 1.01 | 1.16 | 1.08 | 1.07 | 1.07 | 1.11
HCC-827 | 0.332 | 0.282 | 0.207 | 0.295 | 0.308 | 1.05 | 1.05 | 1.01 | 1.01 | 0.852 | 0.931 |  | 0.869 | 0.951 | 0.976 | 1.04 | 1.03 | 0.955 | 0.998 | 0.918
BEN | 0.719 | 0.743 | 0.754 | 0.778 | 0.561 | 0.0684 | 0.132 | 0.0701 | 0.0526 | 0.0549 | 1.19 | 0.662 | 0.971 | 0.824 | 0.816 | 0.865 | 0.826 | 0.865 | 0.682 | 0.408
ChaGo-K-1 | 0.548 | 0.531 | 0.474 | 0.532 | 0.532 | 0.88 | 0.587 | 1.01 | 0.859 | 0.975 | 1.08 |  | 1.08 | 1.14 | 0.874 | 0.996 | 0.875 | 0.948 | 1.05 | 0.91
